Assay results reported in patent US20040152670A1, “Novel aminoindanes” (priority 1999, published 2004).
pEC50: −log10 of the molar value. Where two headings read alike, the source gives them in different places.

What was measured:
[1] = test system: Group I metabotropic glutamate receptors (mGluRs); assay: Phosphatidylinositol assay in neonatal rat tissue slices (inositol phosphate accumulation); type: cell-based, Sprague Dawley rat; conditions: for pEC50: inhibition of the inositol phosphate accumulation induced by ACPD, read-out: Group I Antagonist EC50; for Group I Agonist: increase in intracellular free inositol phosphate accumulation; for Group I Agonist / Group I Antagonist: Yes/No; for Group I Antagonist: inhibits the inositol phosphate accumulation induced by ACPD
Experimental: Briefly, cross-chopped slices are prepared from neonatal Sprague Dawley rat tissue (age: p7-p14). The slices are pre-labelled with [3H] myo-inositol. Following pre-labelling, the slices are incubated with the test drugs and standard (known Group I agonists i.e. ACPD) for a period of 45 minutes. The incubation is terminated by the addition of chloroform/methanol/HCl (100:200:2). The resulting mixture is separated into two phases by the addition of chloroform and distilled water. The aqueous fraction is applied to ion exchange columns, and inositol phosphates are eluted using 800 mM Ammonium Formate/100 mM Formic Acid. The eluent is then analyzed using liquid scintillation counting. The amount of inositol phosphate accumulation is expressed as a percentage of that induced by ACPD. Group I metabotropic glutamate receptors (mGluRs) are positively coupled on inositol phosphate metabolism. Agonists at these receptors lead to an increase in intracellular free inositol phosphates, while antagonists inhibit the increase in intracellular free inositol phosphate induced by standard agonists (i.e. ACPD). Cross-chopped slices were prepared from neonatal Sprague Dawley rat tissue (age: p7-p14). The slices were pre-labelled with [^3H] myo-inositol. Following pre-labelling, the slices were incubated with the test compounds and standard (known Group I agonists i.e. ACPD) for a period of 45 minutes. The incubation was terminated by the addition of chloroform/methanol/HCl (100:200:2). The resulting mixture was separated into two phases by the addition of chloroform and distilled water. The aqueous fraction was applied to ion exchange columns, and inositol phosphates were eluted using 800 mM Ammonium Formate/100 mM Formic Acid. The eluent was then analyzed using liquid scintillation counting. The amount of inositol phosphate accumulation was expressed as a percentage of that induced by ACPD. If the drugs cause an increase in intracellular free inositol phosphate accumulation, they are considered to be Group I agonists. […]

[2] = test system: Group II/III metabotropic glutamate receptors (mGluRs); assay: Cyclic AMP assay in rat cortical slices (forskolin-induced cyclic AMP accumulation); type: cell-based, Sprague Dawley rat; conditions: for Group II/III Agonist: inhibits forskolin-induced cyclic AMP accumulation; for Group II/III Agonist / Group II/III Antagonist: Yes/No; for Group II/III Antagonist: inhibits the glutamate-caused decrease in forskolin-induced cyclic AMP accumulation
Experimental: The assay of cyclic AMP formation can be performed as described previously (Tovey el al., Clinica Chimica Acta, 56, 221-234, 1974). The assay can be modelled on the cyclic AMP assay kit available from Amersham, which in turn, is based on the assay created by Tovey el al. Briefly, samples are prepared from Sprague Dawley rat (225-250 g) cortical slices. Slices are incubated with the drug, and then challenged with forskolin to induce cyclic AMP release. Following termination of the reaction by boiling, the slices are homogenized and centrifuged. Samples of supernatant are then incubated for 2-3 hours with a known quantity of [^3H]cAMP and a binding protein. When the incubation is complete, the bound cyclic AMP is separated from the free cyclic AMP by centrifugation with charcoal. The resulting supernatant (containing free cyclic AMP) is then analyzed by liquid scintillation counting. The amount of unbound cyclic AMP can be calculated from a standard curve previously determined with various samples of free cyclic AMP. Group II/III metabotropic glutamate receptors (mGluRs) are negatively coupled to adenylate cyclase, and agonists of these receptors lead to a decrease in intracellular cyclic AMP accumulation. The assay has been modeled on the cyclic AMP assay kit available from Amersham. This kit, in turn, is based on the assay created by Tovey et al. (1974). Briefly, the samples were prepared from Sprague Dawley rat (225-250 g) cortical slices. Slices were incubated with the test compound (drug), and then challenged with forskolin to induce cyclic AMP release. Following termination of the reaction by boiling, the slices were homogenized and centrifuged. Samples of supernatant were then incubated for 2-3 hours with a known quantity of [^3H]cAMP and a binding protein. When the incubation was complete, the bound cyclic AMP was separated from the free cyclic AMP by centrifugation with charcoal. The resulting supernatant (containing free cyclic AMP) was then analyzed by liquid scintillation counting. The amount of unbound cyclic AMP was calculated from a standard curve previously determined with various samples of free cyclic AMP. If the drugs tested inhibit forskolin-induced cyclic AMP accumulation, they are considered to be Group II/III agonists. Conversely, if they inhibit the decrease in forskolin-induced cyclic AMP accumulation caused by glutamate, they are considered to be Group II/III antagonists.

mGluR1α receptor = target: T1, mGluR1α receptor (Rattus norvegicus, UniProt P23385); assay: PI hydrolysis antagonist assay in Chinese hamster ovary cell lines expressing cloned mGluR1α; type: cell-based; conditions: CHO cells expressing cloned mGluR1α; compound at 5 mM; 10 µM (L)-glutamic acid; FIG. 1
T1 construct: expressed in transfected cells; host or cells: Chinese hamster ovary (CHO) cells
T1 sequence (P23385 19-1199): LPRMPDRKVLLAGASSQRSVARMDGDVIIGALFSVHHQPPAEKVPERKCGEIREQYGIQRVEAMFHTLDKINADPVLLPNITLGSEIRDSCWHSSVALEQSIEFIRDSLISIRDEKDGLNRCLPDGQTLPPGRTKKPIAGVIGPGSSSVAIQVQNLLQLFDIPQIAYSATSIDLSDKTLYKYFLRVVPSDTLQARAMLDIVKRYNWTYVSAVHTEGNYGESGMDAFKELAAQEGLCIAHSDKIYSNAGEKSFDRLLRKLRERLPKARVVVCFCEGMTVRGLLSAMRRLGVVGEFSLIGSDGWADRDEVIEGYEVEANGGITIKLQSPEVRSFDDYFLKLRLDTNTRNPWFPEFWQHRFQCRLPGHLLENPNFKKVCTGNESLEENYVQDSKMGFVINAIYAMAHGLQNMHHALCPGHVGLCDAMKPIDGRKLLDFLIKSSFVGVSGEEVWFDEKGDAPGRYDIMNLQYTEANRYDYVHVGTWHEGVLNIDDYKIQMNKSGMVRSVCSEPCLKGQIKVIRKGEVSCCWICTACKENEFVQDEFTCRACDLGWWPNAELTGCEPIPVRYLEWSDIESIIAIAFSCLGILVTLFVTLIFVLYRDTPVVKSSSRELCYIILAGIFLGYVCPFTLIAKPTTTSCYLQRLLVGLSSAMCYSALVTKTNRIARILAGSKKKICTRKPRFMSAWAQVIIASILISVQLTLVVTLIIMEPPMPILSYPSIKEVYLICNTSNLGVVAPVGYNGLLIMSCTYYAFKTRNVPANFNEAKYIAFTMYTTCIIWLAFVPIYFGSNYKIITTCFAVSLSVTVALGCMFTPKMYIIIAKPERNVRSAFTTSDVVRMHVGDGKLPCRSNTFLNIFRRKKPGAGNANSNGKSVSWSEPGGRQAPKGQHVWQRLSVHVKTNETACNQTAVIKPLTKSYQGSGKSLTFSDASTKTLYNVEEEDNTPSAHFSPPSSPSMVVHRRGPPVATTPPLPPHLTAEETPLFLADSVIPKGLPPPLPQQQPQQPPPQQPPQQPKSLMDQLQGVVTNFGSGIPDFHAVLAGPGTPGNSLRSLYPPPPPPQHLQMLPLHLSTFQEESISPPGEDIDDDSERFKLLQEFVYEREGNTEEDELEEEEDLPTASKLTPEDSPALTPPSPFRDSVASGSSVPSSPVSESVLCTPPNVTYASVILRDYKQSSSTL
Experimental: The Chinese hamster ovary cell lines expressing mGluR1α, mGlu R2 and mGluR4αreceptors have been described previously (Amarori and Nakanishi, Neuron 8, 757-765, 1992; Tanabe et al., Neuron 8, 169-179, 1992, and J. Neurochem. 63, 2038-2047, 1993). They are maintained at 37° C. in a humidified 5% CO2 incubator in Dubecco's Modified Eagle Medium (DMEM) containing a reduced concentration of(S)-glutamine (2 mM) and are supplemented with 1% proline, penicillin (100 U/mL), streptomycin ([…]) and 10% dialyzed fetal calf serum (all GIBCO, Paisley). Two days before assay 1.8×10^6 cells are evenly distributed into the wells of 24 well plates.
Phosphatidylinositol (PI) hydrolysis can be measured as described previously (Hayashi et al., Nature 366, 687-690,1992, and J. Neuroscience 14, 3370-3377, 1994). Briefly, the cells are labeled with [^3H]inositol (2 μCi/mL) 24 h prior to the assay. For agonist assays, the cells are incubated with test compound dissolved in phosphate-buffered saline (PBS)-LiC] for 20 min, and agonist activity is determined from the level of ^3H-labeled mono-, bis- and tris-inositol phosphates generated, as measured following ion-exchange chromatography, compared with the level generated in the absence of the test compound. […] The antagonist activity is then determined as the inhibitory effect of the (S)-Glu mediated response. […]

[3] = inhibition of forskolin-induced cyclic AMP accumulation, read-out: Group II/III Agonist EC50
[4] = inhibition of the glutamate-caused decrease in forskolin-induced cyclic AMP accumulation, read-out: Group II/III Antagonist EC50

Row | Compound | pEC50 [1] | pEC50 [2, 3] | Group I Agonist [1] | Group I Antagonist [1] | Group II/III Agonist [2] | Group II/III Antagonist [2] | antagonist activity: block of the increase in PI hydrolysis by (L)-glutamic acid at the mGluR1α receptor (mGluR1α receptor) | pEC50 [2, 4]
1 | N[C@]1(C(=O)O)C[C@@H](CC(=O)O)c2ccccc21 (relative stereo) [Compound 13, Trans-1-amino-1-carboxyindane-3-acetic acid] | 8.89 | 6.00 | – | – | – | – | – | –
2 | N[C@]1(C(=O)O)C[C@H](C(=O)O)c2ccccc21 [Compound 4a, Trans-1-aminoaindane-1,3-dicarboxylic acid] | 6.32 | – | No | Yes | No | No | effectively blocked | –
3 | NC(C(=O)O)C1c2ccccc2CC1CC(=O)O (centres unmarked) [Compound 18, 1-[2-amino]-2-indanediacetic acid] | 4.85 | 6.34 | No | Yes | Yes | Yes | – | 7.59
4 | N[C@]1(C(=O)O)c2ccccc2C[C@H]1CC(=O)O (relative stereo) [Compound 9, Trans-1-amino-1-carboxyindane-2-acetic acid] | 5.96 | – | – | – | – | – | – | 7.47
5 | NC(C(=O)O)C1CC(C(=O)O)c2ccccc21 (centres unmarked) [Compound 23, 1-[2-amino]-3-carboxyindaneacetic acid] | – | – | No | No | No | Yes | – | 6.21
6 | N[C@@]1(C(=O)O)C[C@H](C(=O)O)c2ccccc21 (stereo in doubt) [Compound 4b, Cis-1-aminoindane-1,3-dicarboxylic acid] | – | 5.68 | – | – | – | – | – | –
